In patent US9738604B2, “Ethynylbenzene derivatives” (Duke University, priority 2010, dated 2017):
Converted amounts (≈) assume the structure as drawn. Where two headings read alike, the source gives them in different places.

What was measured:
Type in all cases: cell-based
E. coli W3110 = assay: microbe, parasite or virus in culture; details: for MIC: Escherichia coli, W3110, 22 h, read-out: MIC E. coli W3110
E. coli W3110RL = assay: microbe, parasite or virus in culture; details: for MIC E. coli W3110RL: E. coli with lpxC of R. leguminosarum, 22 hours at 37° C., MTT; for MIC: Escherichia coli, W3110RL, 22 h, read-out: MIC E. coli W3110RL
P. aeruginosa (PAO1) = assay: MIC, P. aeruginosa; details: for MIC: Pseudomonas aeruginosa, read-out: MIC P. aeruginosa (PAO1)
E. coli W3110PA = assay: microbe, parasite or virus in culture; details: for MIC E. coli W3110PA: E. coli with lpxC of P. aeruginosa, 22 hours at 37° C., MTT; for MIC: Escherichia coli, W3110PA, 22 h, read-out: MIC E. coli W3110PA
[1] = P. aeruginosa PAO1, 22 hours at 37° C., MTT

Row | SMILES | MIC E. coli W3110 (E. coli W3110) | MIC E. coli W3110RL (E. coli W3110RL) | MIC P. aeruginosa (PAO1) (P. aeruginosa (PAO1); [1]) | MIC E. coli W3110PA (E. coli W3110PA) | MIC (E. coli W3110RL) | MIC (E. coli W3110PA) | MIC (E. coli W3110) | MIC (P. aeruginosa (PAO1); PAO1, 22 h) | MIC (P. aeruginosa (PAO1); [1])
1 | CC[C@@H](C)[C@H](NC(=O)c1ccc(C#CC#Cc2ccc(N)cc2)cc1)C(=O)NO [CPD-023, (2S,3R)-2-({4′-[4′-(4′-aminophenyl)buta-1′,3′-diyn-1-yl]phenyl}formamido)-N-hydroxy-3-methylpentanamide] | A (key: A: <1 μg/mL; B: 1-10 μg/mL; C: 11-50 μg/mL; D: 51-100 μg/mL; E: >100 μg/mL) | C (11-50 μg/mL) | D (51-100 μg/mL) | B (1-10 μg/mL) |  |  |  |  | 
2 | CCCc1cc(C2=N[C@@H](C(=O)NO)CO2)cc(OC)c1OC |  |  |  |  | > 100 µg/mL | > 100 µg/mL |  |  | 
3 | CC(C)[C@H](NC(=O)c1ccc(C#CC#Cc2ccc(N)cc2)cc1)C(=O)NO [CPD-022, (2S)-2-({4′-[4′-(4′-aminophenyl)buta-1′,3′-diyn-1′-yl]phenyl}formamido)-N-hydroxy-3-methylbutanamide] | A (key: A: <1 μg/mL; B: 1-10 μg/mL; C: 11-50 μg/mL; D: 51-100 μg/mL; E: >100 μg/mL) | D (51-100 μg/mL) | B (1-10 μg/mL) | A (<1 μg/mL) |  |  |  |  | 
4 | C[C@@H](O)[C@H](NC(=O)c1ccc(C#CCOc2ccc(N)cc2)cc1)C(=O)NO [CPD-059, 4-(3-(4-aminophenoxy)prop-1-ynyl)-N-((2S,3R)-3-hydroxy-1-(hydroxyamino)-1-oxobutan-2-yl)benzamide] |  |  |  |  | 51 to 100 µg/mL (≈ 133 to 261 µM) | 11 to 50 µg/mL (≈ 28.7 to 130 µM) | 1 to 10 µg/mL (≈ 2.61 to 26.1 µM) | 11 to 50 µg/mL (≈ 28.7 to 130 µM) | 
5 | Nc1ccc(C#CC#Cc2ccc(C(=O)NC3CCN(O)C3=O)cc2)cc1 (centres unmarked) [CPD-043, 4-((4-aminophenyl)buta-1,3-diynyl)-N-(1-hydroxy-2-oxopyrrolidin-3-yl)benzamide] |  |  |  |  | 51 to 100 µg/mL (≈ 142 to 278 µM) | 51 to 100 µg/mL (≈ 142 to 278 µM) | < 1 µg/mL | 51 to 100 µg/mL (≈ 142 to 278 µM) | 
6 | C[C@@H](O)[C@H](NC(=O)c1ccc(C#CC#Cc2ccc(N)cc2)cc1)C(N)=O [CPD-047, N-((2S,3R)-1-amino-3-hydroxy-1-oxobutan-2-yl)-4-((4-aminophenyl)buta-1,3-diynyl)benzamide] |  |  |  |  | 51 to 100 µg/mL (≈ 141 to 277 µM) | 51 to 100 µg/mL (≈ 141 to 277 µM) | 1 to 10 µg/mL (≈ 2.77 to 27.7 µM) | 51 to 100 µg/mL (≈ 141 to 277 µM) | 
7 | C[C@@H](O)[C@H](NC(=O)c1ccc(C#Cc2ccccc2)cc1)C(=O)NO |  |  |  |  | > 100 µg/mL | < 1 µg/mL | < 1 µg/mL |  | 1 to 10 µg/mL (≈ 2.96 to 29.6 µM)
8 | C[C@](O)(c1c[nH]nn1)C(NC(=O)c1ccc(C#CC#Cc2ccc(N)cc2)cc1)C(=O)NO (stereo partly drawn) [CPD-072, 4-((4-aminophenyl)buta-1,3-diynyl)-N-((3R)-3-hydroxy-1-(hydroxyamino)-1-oxo-3-(1H-1,2,3-triazol-4-yl)butan-2-yl)benzamide] |  |  |  |  |  |  | < 1 µg/mL | < 1 µg/mL | 
9 | Nc1ccc(C#CC#Cc2ccc(C(=O)N[C@H](C(=O)NO)[C@H](O)C(F)(F)F)cc2)cc1 [CPD-057, 4-((4-aminophenyl)buta-1,3-diynyl)-N-((2S,3S)-4,4,4-trifluoro-3-hydroxy-1-(hydroxyamino)-1-oxobutan-2-yl)benzamide] |  |  |  |  | 51 to 100 µg/mL (≈ 118 to 232 µM) | < 1 µg/mL | < 1 µg/mL | < 1 µg/mL | 
10 | C[C@H](O)[C@@H](NC(=O)c1ccc(C#CC#Cc2ccc(N)cc2)cc1)C(=O)NO [CPD-055, (2R,3S)-2-{4′-[(4″-aminophenyl)buta-1′,3′-diynyl]benzamido}-1,3-dihydroxybutanamide] |  |  |  |  | 51 to 100 µg/mL (≈ 135 to 265 µM) | 11 to 50 µg/mL (≈ 29.1 to 132 µM) | 1 to 10 µg/mL (≈ 2.65 to 26.5 µM) | 11 to 50 µg/mL (≈ 29.1 to 132 µM) | 
11 | CC(C)(C)OC(=O)CC[C@H](NC(=O)c1ccc(C#CC#Cc2ccc(N)cc2)cc1)C(=O)NO [CPD-017, Tert-butyl (4S)-4-({4′-[4′-(4′-aminophenyl)buta-1′,3′-diyn-1′-yl]phenyl}formamido)-4-(hydroxycarbamoyl)butanoate] | C (key: A: <1 μg/mL; B: 1-10 μg/mL; C: 11-50 μg/mL; D: 51-100 μg/mL; E: >100 μg/mL) | E (>100 μg/mL) | E (>100 μg/mL) | E (>100 μg/mL) |  |  |  |  | 
12 | Nc1ccc(C#CC#Cc2ccc(C(=O)N[C@H](C(=O)NO)[C@H](O)C(F)F)cc2)cc1 [CPD-056, 4-((4-aminophenyl)buta-1,3-diynyl)-N-((2S,3S)-4,4-difluoro-3-hydroxy-1-(hydroxyamino)-1-oxobutan-2-yl)benzamide] |  |  |  |  | 1 to 10 µg/mL (≈ 2.42 to 24.2 µM) | < 1 µg/mL | < 1 µg/mL | < 1 µg/mL | 
13 | Nc1ccc(C#CC#Cc2ccc(C(=O)NCC(=O)NO)cc2)cc1 [CPD-024, 2-({4′-[4′-(4′-aminophenyl)buta-1′,3′-diyn-1′-yl]phenyl}formamido)-N-hydroxyacetamide] | A (key: A: <1 μg/mL; B: 1-10 μg/mL; C: 11-50 μg/mL; D: 51-100 μg/mL; E: >100 μg/mL) | E (>100 μg/mL) | D (51-100 μg/mL) | C (11-50 μg/mL) |  |  |  |  | 
14 | C[C@@H](O)[C@H](NS(=O)(=O)c1ccc(C#CC#Cc2ccc(N)cc2)cc1)C(=O)NO [CPD-039, (2S,3R)-2-({4′-[4′-(4′-aminophenyl)buta-1′,3′-diyn-1′-yl]benzene}sulfonamido)-N,3-dihydroxybutanamide] | B (key: A: <1 μg/mL; B: 1-10 μg/mL; C: 11-50 μg/mL; D: 51-100 μg/mL; E: >100 μg/mL) | E (>100 μg/mL) | D (51-100 μg/mL) | D (51-100 μg/mL) |  |  |  |  | 
15 | C[C@@H](O)[C@H](NC(=O)c1ccc(C#CC#Cc2cccnc2)cc1)C(=O)NO [CPD-038, (2S,3R)-2-{4′-[(pyridin-3″-yl]buta-1′,3′-diynyl]benzamido}-1,3-dihydroxybutanamide] | A (key: A: <1 μg/mL; B: 1-10 μg/mL; C: 11-50 μg/mL; D: 51-100 μg/mL; E: >100 μg/mL) | D (51-100 μg/mL) | A (<1 μg/mL) | B (1-10 μg/mL) |  |  |  |  | 
16 | Nc1ccc(C#CC#Cc2ccc(C(=O)N[C@H](C(=O)NO)[C@@H](O)c3ccc(O)cc3)cc2)cc1 [CPD-050, 4-((4-aminophenyl)buta-1,3-diynyl)-N-((1S,2S)-1-hydroxy-3-(hydroxyamino)-1-(4-hydroxyphenyl)-3-oxopropan-2-yl)benzamide] |  |  |  |  | 11 to 50 µg/mL (≈ 24.2 to 110 µM) | < 1 µg/mL | < 1 µg/mL | 1 to 10 µg/mL (≈ 2.2 to 22 µM) | 
17 | C[C@@](N)(C(F)F)C(NC(=O)c1ccc(C#CC#Cc2ccc(N)cc2)cc1)C(=O)NO (stereo partly drawn) [CPD-079, N-((3S)-3-amino-4,4-difluoro-1-(hydroxyamino)-3-methyl-1-oxobutan-2-yl)-4-((4-aminophenyl)buta-1,3-diynyl)benzamide] |  |  |  |  |  |  | < 1 µg/mL | < 1 µg/mL | 
18 | NCCCC[C@H](NC(=O)c1ccc(C#CC#Cc2ccc(N)cc2)cc1)C(=O)NO [CPD-032, (2S)-6-amino-2-({4′-[4′-(4′-aminophenyl)buta-1′,3′-diyn-1-yl]phenyl}formamido)-N-hydroxyhexanamide] | C (key: A: <1 μg/mL; B: 1-10 μg/mL; C: 11-50 μg/mL; D: 51-100 μg/mL; E: >100 μg/mL) | D (51-100 μg/mL) | C (11-50 μg/mL) | C (11-50 μg/mL) |  |  |  |  | 
19 | O=C(NO)C(Cc1ccc2ccccc2c1)NS(=O)(=O)c1ccc2ccccc2c1 (centres unmarked) |  |  |  |  | > 100 µg/mL | > 100 µg/mL | 1 to 10 µg/mL (≈ 2.38 to 23.8 µM) |  | > 100 µg/mL
20 | Nc1ccc(C#CC#Cc2ccc(C(=O)N[C@@H](Cc3ccc(O)cc3)C(=O)NO)cc2)cc1 [CPD-033, (2S)-2-({4′-[4′-(4′-aminophenyl)buta-1′,3′-diyn-1′-yl]phenyl}formamido)-N-hydroxy-3′-(4′-hydroxyphenyl)propanamide] | B (key: A: <1 μg/mL; B: 1-10 μg/mL; C: 11-50 μg/mL; D: 51-100 μg/mL; E: >100 μg/mL) | E (>100 μg/mL) | C (11-50 μg/mL) | B (1-10 μg/mL) |  |  |  |  | 
21 | Nc1cccc(C#CC#Cc2ccc(C(=O)N[C@@H](Cc3c[nH]cn3)C(=O)NO)cc2)c1 [CPD-015, (2S)-2-({4′-[4′-(3′-aminophenyl)buta-1′,3′-diyn-1′-yl]phenyl}formamido)-N-hydroxy-3-(1′H-imidazol-4′-yl)propanamide] |  |  |  |  | > 100 µg/mL | 51 to 100 µg/mL (≈ 123 to 242 µM) | < 1 µg/mL | 1 to 10 µg/mL (≈ 2.42 to 24.2 µM) | 
22 | C[C@@](O)(CF)[C@H](NC(=O)c1ccc(C#CC#Cc2ccc(N)cc2)cc1)C(=O)NO [CPD-061, 4-((4-aminophenyl)buta-1,3-diynyl)-N-((2S,3S)-4-fluoro-3-hydroxy-1-(hydroxyamino)-3-methyl-1-oxobutan-2-yl)benzamide] |  |  |  |  | 51 to 100 µg/mL (≈ 125 to 244 µM) | 1 to 10 µg/mL (≈ 2.44 to 24.4 µM) | < 1 µg/mL | 1 to 10 µg/mL (≈ 2.44 to 24.4 µM) | 
23 | CC(C)C[C@H](NC(=O)c1ccc(C#CC#Cc2ccc(N)cc2)cc1)C(=O)NO [CPD-026, (2S)-2-({4′-[4′-(4′-aminophenyl)buta-1′,3′-diyn-1-yl]phenyl}formamido)-N-hydroxy-4-methylpentanamide] | B (key: A: <1 μg/mL; B: 1-10 μg/mL; C: 11-50 μg/mL; D: 51-100 μg/mL; E: >100 μg/mL) | E (>100 μg/mL) | E (>100 μg/mL) | E (>100 μg/mL) |  |  |  |  | 
24 | C[C@@](O)(C(F)F)[C@H](NC(=O)c1ccc(C#Cc2ccc(CN3CCOCC3)cc2)cc1)C(=O)NO [CPD-069, N-((2S,3S)-4,4-difluoro-3-hydroxy-1-(hydroxyamino)-3-methyl-1-oxobutan-2-yl)-4-((4-(morpholinomethyl)phenyl)ethynyl)benzamide] |  |  |  |  |  |  | < 1 µg/mL | 1 to 10 µg/mL (≈ 2.05 to 20.5 µM) | 
25 | Nc1ccc(C#CC#Cc2ccc(C(=O)N[C@@H]3CN(O)C3=O)cc2)cc1 [CPD-071, (R)-4-((4-aminophenyl)buta-1,3-diynyl)-N-(1-hydroxy-2-oxoazetidin-3-yl)benzamide] |  |  |  |  |  |  | 1 to 10 µg/mL (≈ 2.9 to 29 µM) | 51 to 100 µg/mL (≈ 148 to 290 µM) | 
26 | C[C@@](N)(C(F)F)[C@H](NC(=O)c1ccc(C#Cc2ccc(CN3CCOCC3)cc2)cc1)C(=O)NO [CPD-080, N-((2S,3S)-3-amino-4,4-difluoro-1-(hydroxyamino)-3-methyl-1-oxobutan-2-yl)-4-((4-(morpholinomethyl)phenyl)ethynyl)benzamide] |  |  |  |  |  |  | < 1 µg/mL | < 1 µg/mL | 
